Here are results for three substances from publication PMC2992351 (ACS medicinal chemistry letters, 2010).

For this assay, the target named is Grb2 SH2 domain (Homo sapiens, UniProt P62993). The experiment in a line: Isothermal titration calorimetry. The assay is classed as binding. The conditions noted are these: for Ka / ΔG^o / ΔH^o / ΔS^o / −TΔS^o: ITC at 298 K, average of at least two experiments; for Ka: association constant. For orientation: ITC needs no label: the signal is the heat of the interaction.
Sequence of Grb2 SH2 domain (P62993 60-152 limits assumed): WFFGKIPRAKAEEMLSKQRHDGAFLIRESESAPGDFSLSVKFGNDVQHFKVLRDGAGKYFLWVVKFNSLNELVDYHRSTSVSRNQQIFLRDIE

As for pYVNG (head to tail) [compound 1], the Ka result is reported as “(4.7 ± 0.11) × 10^4 M^−1”, the “ΔG^o” value is -6.4 ± 0.01 kcal/mol, the “ΔH^o” value is -3.5 ± 0.26 kcal/mol and the “ΔS^o” value is listed as 9.8 ± 0.20 cal mol^−1K^−1. The “−TΔS^o” value was -2.9 ± 0.06 kcal/mol. In addition, where the note is “ITC, macrocycle vs its acyclic control”, the “fold lower affinity than acyclic control 4” value was “about 10 fold”.
Regarding pYVNVP (head to tail) [compound 7], the Ka result is given as “(1.0 ± 0.20) × 10^7 M^−1”, the “ΔG^o” value is -9.6 ± 0.09 kcal/mol, the “ΔH^o” value is -4.3 ± 0.57 kcal/mol and the “ΔS^o” value was 17.7 ± 1.20 cal mol^−1K^−1. The “−TΔS^o” value was -5.3 ± 0.36 kcal/mol. Besides, the “difference in binding enthalpies of 7 and 8” value (ITC, 7 vs 8) amounted to 2 kcal/mol. For the same substance, under “ITC, macrocycle 7 vs linear control 8”, the “fold greater affinity than linear control 8” value is given as “about two-fold”.
As for pYVNV (head to tail) [compound 2], the Ka entry is “(2.3 ± 0.21) × 10^6 M^−1”, the “ΔG^o” value is -8.7 ± 0.06 kcal/mol, the “ΔH^o” value is -4.3 ± 0.32 kcal/mol and the “ΔS^o” value is given as 14.8 ± 0.54 cal mol^−1K^−1. Further, the “−TΔS^o” value was -4.4 ± 0.16 kcal/mol.
